Results on 39 compounds are retold here after patent US12281102B2, “Inhibitors of APOL1 and methods of using same” (Vertex Pharmaceuticals Incorporated, priority 2020, dated 2025).

Bounds are passed on as bounds.

The target of the first assay is T1, G1 APOL1 (Homo sapiens, UniProt O14791, I384M/S342G).
T1 construct: expressed in transfected cells
T1 sequence (O14791 28-398 S342G/I384M): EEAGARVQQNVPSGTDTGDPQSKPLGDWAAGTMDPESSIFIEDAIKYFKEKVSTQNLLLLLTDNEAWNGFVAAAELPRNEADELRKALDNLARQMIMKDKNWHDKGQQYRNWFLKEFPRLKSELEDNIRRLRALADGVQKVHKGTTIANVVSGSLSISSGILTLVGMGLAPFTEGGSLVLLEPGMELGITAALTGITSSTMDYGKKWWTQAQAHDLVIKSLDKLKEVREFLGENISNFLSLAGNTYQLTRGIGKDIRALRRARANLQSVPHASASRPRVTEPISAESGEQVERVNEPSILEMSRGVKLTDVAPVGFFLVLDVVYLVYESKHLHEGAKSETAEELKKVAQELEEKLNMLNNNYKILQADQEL
Kind of assay: Acute APOL1 Thallium Assay with inducible stable clones of HEK 293 cells. In kind it is cell-based. To be noted: HEK 293 T-Rex inducible stable clone expressing G1 APOL1; read-out: Thallium Assay (IC50). From the text:
Acute APOL1 Thallium Assay with Inducible Stable Clones of HEK 293 Cells
Apolipoprotein L1 (APOL1) proteins form potassium-permeable cation pores in the plasma membrane. APOL1 risk variants (G1 and G2) induce greater potassium flux than G0 in HEK293 cells. This assay exploits the permeability of thallium (T1+) through ligand-gated potassium channels. The dye produces a bright fluorescent signal upon binding to T1+ conducted through potassium channels. The intensity of the T1+ signal is proportional to the number of potassium channels in the open state. Therefore, it provides a functional indication of the potassium channel activities. During the initial dye-loading step, the T1+ indicator dye as an acetoxymethyl (AM) ester enters the cells through passive diffusion. Cytoplasm esterases cleave the AM ester and relieve its active thallium-sensitive form. The cells are then stimulated with T1+. The increase of fluorescence in the assay represents the influx of T1+ into the cell specifically through the potassium channel (i.e. through APOL1 pores), providing a functional measurement of potassium channel/pore activity. The Thallium assay is conducted with cells expressing G1 APOL1.
APOL1 Cell Line (HEK T-Rex Stable Inducible Cell Line)
• HEK T-Rex System • Tetracycline (Tet) inducible mammalian expression system. • Stably express the Tet repressor to regulate transcription. • Expression under the full-length CMV promoter. • APOL1 stable inducible cell line Clone used: G1 DC3.25 Tissue Culture Media Cell Culture Medium • DMEM+10% FBS+P/S+5 μg/mL blasticidin+1 μg/mL puromycin. • 500 mL DMEM+55 mL FBS+5 mL P/S+280 μL blasticidin S HCl (10 mg/mL)+56 μL puromycin (10 mg/mL). Cell Assay Medium • DMEM with 2% FBS+penicillin streptomycin. Reagents:
Instruments and Equipment • Nuaire cell culture hood, Cat. No. 540-600 • 37° C./5% CO2 incubator link to robotic arm, Liconic: STX110 • Molecular Devices FLIPR^Tetra High throughput cellular screening system, Cat. No. FT0324, Molecular Devices • ThermoFisher MultiDrop 384, Cat. No. 5840300 • Biotek Microfill, Cat. No. ASF1000A-4145 • BioRad TC10 cell counter, Cat. No. 145-0010 Assay Procedures Cells Scaled Up from Frozen Vials • APOL1 G1 3.25 (HEK293 T-Rex) frozen vials: 5 million cells per vial • Step 1, Day 1: Defrost frozen vial into T-225. • Step 2, Day 5: (when 85% confluent): Split one T-225 at 3×10^6 cells per flask. • Step 3, Day 8: Splits cells to set up for the assay plates as described below. Cell Culture
T-Rex APOL1 HEK cells are split twice per week to keep the confluence state below 85% of the culture flask surface area. Cells can be kept until passage 25.
• DMEM high glucose+10% FBS, +P/S, +5 μg/mL blasticidin, +1 μg/mL puromycin. • 500 mL DMEM, +55 mL FBS, +5 mL P/S, +280 μL blasticidin 10 mg/mL, +56 μL Puromycin 10 mg/mL. Assay Media • Opti-MEM reduced serum medium from Invitrogen. Day 1 Preparation of Cell Assay Plates • Culture medium is removed from the x cm^2 T-flask by aspiration. • The cell monolayer is rinsed with PBS 1× at room temperature. PBS is removed by aspiration. • Cells are trypsinized using Trypsin. • The flasks are incubated at room temperature for 2-3 minutes. • Complete DMEM medium is then added. Cell suspension is then transferred to a 50 mL Falcon polypropylene tube. • Cells are then counted using a BioRad TC10 cell counter and the required amount of cells are centrifuged at 1200 RPM for 5 minutes. Required amount is 1.3×10^6 cells/mL APOL1 T-Rex HEK cells. • The pellet is suspended in the assay medium. • Using the MultiDrop, add 20 μL to each well (corresponds to 26000 cells total per well) of a 384-well black, transparent, flat bottom Poly-D coated plate. • Tetracycline as prepared in the following section is added to the cells before plating to induce APOL1 expression. • Plates are left at room temperature for 20 to 30 minutes before incubation at 37° C. and 5% CO2. […]
Take `O=C1NCC[C@@H]1NC1CC(c2c(-c3ccc(F)cc3)[nH]c3c(F)cc(F)cc23)C1` (stereo partly drawn) [Compound 20, (3S)-3-[[3-[5,7-difluoro-2-(4-fluorophenyl)-1H-indol-3-yl]cyclobutyl]amino]pyrrolidin-2-one]: the IC50 was below 250 nM.
Same read-out and setting: as for `OCC1(NC2CC(c3c(-c4ccc(F)cc4)[nH]c4c(F)cc(F)cc34)C2)CC1` (stereo not drawn) [Compound 21], the figure is 250 to 1000 nM.
The same measure, in the same setting: the value for `Fc1ccc(-c2[nH]c3c(F)cc(F)cc3c2C2CC(NC3COC3)C2)cc1` (stereo not drawn) [Compound 22] was above 1000 nM; that for `CC(=O)NCCNC1CC(c2c(-c3ccc(F)cc3)[nH]c3c(F)cc(F)cc23)C1` (stereo not drawn) [Compound 23] was above 1000 nM.
The same measure, in the same setting: as for `CN(C1COC1)C1CC(c2c(-c3ccc(F)cc3)[nH]c3c(F)cc(F)cc23)C1` (stereo not drawn) [Compound 24], the figure is above 1000 nM.
On to `OCCNC1CC(c2c(-c3ccc(F)cc3)[nH]c3c(F)cc(F)cc23)C1` (stereo not drawn) [Compound 25], for which the IC50 fell in the range of 250 to 1000 nM.
On the same count and under the same terms, as for `Fc1ccc(-c2[nH]c3c(F)cc(F)cc3c2C2CC(NCC(F)F)C2)cc1` (stereo not drawn) [Compound 26], the figure is 250 to 1000 nM; as for `O=C(N[C@H]1C[C@@H](c2c(-c3ccc(F)cc3)[nH]c3c(F)cc(F)cc32)C1)OCc1ccccc1` [Compound 27, benzyl((1s,3s)-3-(5,7-difluoro-2-(4-fluorophenyl)-1H-indol-3-yl)cyclobutyl)carbamate], above 1000 nM; as for `O=C(CO)N[C@H]1C[C@@H](c2c(-c3ccc(F)cc3)[nH]c3c(F)cc(F)cc32)C1` [Compound 29, N-((1s,3s)-3-(5,7-difluoro-2-(4-fluorophenyl)-1H-indol-3-yl)cyclobutyl)-2-hydroxyacetamide], 250 to 1000 nM.
On to `O=C(CC1CC(F)(F)C1)N[C@H]1C[C@@H](c2c(-c3ccc(F)cc3)[nH]c3c(F)cc(F)cc32)C1` [Compound 31], for which the IC50 was above 1000 nM.
Same read-out and setting: as for `CS(=O)(=O)CCCC(=O)N[C@H]1C[C@@H](c2c(-c3ccc(F)cc3)[nH]c3c(F)cc(F)cc32)C1` [Compound 32], the figure is above 1000 nM.
Same read-out and setting: as for `O=C(Cn1cnnc1)N[C@H]1C[C@@H](c2c(-c3ccc(F)cc3)[nH]c3c(F)cc(F)cc32)C1` [Compound 33], the figure is above 1000 nM; as for `O=C(CC1CCOCC1)N[C@H]1C[C@@H](c2c(-c3ccc(F)cc3)[nH]c3c(F)cc(F)cc32)C1` [Compound 34], above 1000 nM.
Still for that read-out and setting: as for `COC1(CC(=O)N[C@H]2C[C@@H](c3c(-c4ccc(F)cc4)[nH]c4c(F)cc(F)cc43)C2)CCC1` [Compound 37], the figure is above 1000 nM; as for `CN(CC(=O)N[C@H]1C[C@@H](c2c(-c3ccc(F)cc3)[nH]c3c(F)cc(F)cc32)C1)S(C)(=O)=O` [Compound 38], above 1000 nM.
For `CN1CCCC(CC(=O)N[C@H]2C[C@@H](c3c(-c4ccc(F)cc4)[nH]c4c(F)cc(F)cc43)C2)C1` (stereo partly drawn) [Compound 39], the half-inhibitory concentration (IC50) was above 1000 nM.
Same read-out and setting: as for `Cn1ccc(CC(=O)N[C@H]2C[C@@H](c3c(-c4ccc(F)cc4)[nH]c4c(F)cc(F)cc43)C2)n1` [Compound 41], the figure is above 1000 nM; as for `CS(=O)(=O)NCC(=O)N[C@H]1C[C@@H](c2c(-c3ccc(F)cc3)[nH]c3c(F)cc(F)cc32)C1` [Compound 42], above 1000 nM; as for `CCS(=O)(=O)NCC(=O)N[C@H]1C[C@@H](c2c(-c3ccc(F)cc3)[nH]c3c(F)cc(F)cc32)C1` [Compound 43], above 1000 nM.
The same measure, in the same setting: the value for `O=C(CCN1CCCC1)N[C@H]1C[C@@H](c2c(-c3ccc(F)cc3)[nH]c3c(F)cc(F)cc32)C1` [Compound 44] was above 1000 nM; that for `CN1CCC(CC(=O)N[C@H]2C[C@@H](c3c(-c4ccc(F)cc4)[nH]c4c(F)cc(F)cc43)C2)C1` (stereo partly drawn) [Compound 45] was above 1000 nM; that for `O=C(CN1CCCC1)N[C@H]1C[C@@H](c2c(-c3ccc(F)cc3)[nH]c3c(F)cc(F)cc32)C1` [Compound 46] was above 1000 nM.
On the same count and under the same terms, as for `O=C(CC1(O)CCCCC1)N[C@H]1C[C@@H](c2c(-c3ccc(F)cc3)[nH]c3c(F)cc(F)cc32)C1` [Compound 47], the figure is above 1000 nM.
For the compound `O=C(CCN1CCCC1=O)N[C@H]1C[C@@H](c2c(-c3ccc(F)cc3)[nH]c3c(F)cc(F)cc32)C1` [Compound 48], the IC50 was above 1000 nM.
Same read-out and setting: as for `Cn1nccc1CC(=O)N[C@H]1C[C@@H](c2c(-c3ccc(F)cc3)[nH]c3c(F)cc(F)cc32)C1` [Compound 49], the figure is above 1000 nM; as for `O=C(CC1COC1)N[C@H]1C[C@@H](c2c(-c3ccc(F)cc3)[nH]c3c(F)cc(F)cc32)C1` [Compound 50], above 1000 nM; as for `NS(=O)(=O)CCC(=O)N[C@H]1C[C@@H](c2c(-c3ccc(F)cc3)[nH]c3c(F)cc(F)cc32)C1` [Compound 51], above 1000 nM.
The same measure, in the same setting: the value for `CN1CCC(CC(=O)N[C@H]2C[C@@H](c3c(-c4ccc(F)cc4)[nH]c4c(F)cc(F)cc43)C2)CC1` [Compound 52] was above 1000 nM.
The same measure, in the same setting: as for `O=C(CC1CCCOC1)N[C@H]1C[C@@H](c2c(-c3ccc(F)cc3)[nH]c3c(F)cc(F)cc32)C1` (stereo partly drawn) [Compound 53], the figure is above 1000 nM.
Consider `CS(=O)(=O)CCC(=O)N[C@H]1C[C@@H](c2c(-c3ccc(F)cc3)[nH]c3c(F)cc(F)cc32)C1` [Compound 54], for which the IC50 is above 1000 nM.
Same read-out and setting: as for `O=C(CC(=O)N1CCOCC1)N[C@H]1C[C@@H](c2c(-c3ccc(F)cc3)[nH]c3c(F)cc(F)cc32)C1` [Compound 56], the figure is 250 to 1000 nM; as for `O=C(CN1CCOCC1)N[C@H]1C[C@@H](c2c(-c3ccc(F)cc3)[nH]c3c(F)cc(F)cc32)C1` [Compound 57], above 1000 nM; as for `NS(=O)(=O)CCCC(=O)N[C@H]1C[C@@H](c2c(-c3ccc(F)cc3)[nH]c3c(F)cc(F)cc32)C1` [Compound 58], 250 to 1000 nM.
Consider `CN(C)CCC(=O)N[C@H]1C[C@@H](c2c(-c3ccc(F)cc3)[nH]c3c(F)cc(F)cc32)C1` [Compound 59], for which the IC50 is above 1000 nM.
Still for that read-out and setting: the value for `CN(C)C(=O)CCC(=O)N[C@H]1C[C@@H](c2c(-c3ccc(F)cc3)[nH]c3c(F)cc(F)cc32)C1` [Compound 60] was above 1000 nM; that for `O=C(CCN1CCCCC1)N[C@H]1C[C@@H](c2c(-c3ccc(F)cc3)[nH]c3c(F)cc(F)cc32)C1` [Compound 61] was above 1000 nM.
With `COCCC(=O)N[C@H]1C[C@@H](c2c(-c3ccc(F)cc3)[nH]c3c(F)cc(F)cc32)C1` [Compound 62], the IC50 was above 1000 nM.
The same measure, in the same setting: as for `Cc1nccn1CC(=O)N[C@H]1C[C@@H](c2c(-c3ccc(F)cc3)[nH]c3c(F)cc(F)cc32)C1` [Compound 63], the figure is above 1000 nM.

The same assay, now with this note: Thallium Assay (IC50), HEK 293 T-Rex inducible stable clone expressing G1 APOL1.
`N[C@H]1C[C@@H](c2c(-c3ccc(F)cc3)[nH]c3c(F)cc(F)cc32)C1` [Compound 28, (1s,3s)-3-(5,7-difluoro-2-(4-fluorophenyl)-1H-indol-3-yl)cyclobutan-1-amine] came in with an IC50 below 250 nM.

A word on the IC50: it is the concentration needed to halve the response being measured.
